Data set [1] deals with NCI/ADR-RES. The data set can be described thus: Cytotoxicity against human MCF7/ADR cells for 60 mins by trypan blue staining. Format: functional, cell-based.
Data set [2] concerns NCI/ADR-RES. The data set can be described thus: Reversal of P-glycoprotein-mediated multidrug resistance in human MCF7/ADR cells assessed as sensitization to actinomycin D after 48 hrs by SRB assay. Format: cell-based. (Sulforhodamine B stains cellular protein and so reports cell mass.)
Data set [3] concerns the target ATP-dependent translocase ABCB1 (Homo sapiens, UniProt P08183). The data set can be described thus: Inhibition of P-glycoprotein in human MCF7/ADR cells assessed as increase in [3H]vinblastine accumulation. It is filed as cell-based. The conditions noted are these: nci/adr-res.

Structures are written as SMILES. The source made the active and inactive calls. The rule behind the calls is not given here.

ATP-dependent translocase ABCB1, sequence (P08183 whole entry): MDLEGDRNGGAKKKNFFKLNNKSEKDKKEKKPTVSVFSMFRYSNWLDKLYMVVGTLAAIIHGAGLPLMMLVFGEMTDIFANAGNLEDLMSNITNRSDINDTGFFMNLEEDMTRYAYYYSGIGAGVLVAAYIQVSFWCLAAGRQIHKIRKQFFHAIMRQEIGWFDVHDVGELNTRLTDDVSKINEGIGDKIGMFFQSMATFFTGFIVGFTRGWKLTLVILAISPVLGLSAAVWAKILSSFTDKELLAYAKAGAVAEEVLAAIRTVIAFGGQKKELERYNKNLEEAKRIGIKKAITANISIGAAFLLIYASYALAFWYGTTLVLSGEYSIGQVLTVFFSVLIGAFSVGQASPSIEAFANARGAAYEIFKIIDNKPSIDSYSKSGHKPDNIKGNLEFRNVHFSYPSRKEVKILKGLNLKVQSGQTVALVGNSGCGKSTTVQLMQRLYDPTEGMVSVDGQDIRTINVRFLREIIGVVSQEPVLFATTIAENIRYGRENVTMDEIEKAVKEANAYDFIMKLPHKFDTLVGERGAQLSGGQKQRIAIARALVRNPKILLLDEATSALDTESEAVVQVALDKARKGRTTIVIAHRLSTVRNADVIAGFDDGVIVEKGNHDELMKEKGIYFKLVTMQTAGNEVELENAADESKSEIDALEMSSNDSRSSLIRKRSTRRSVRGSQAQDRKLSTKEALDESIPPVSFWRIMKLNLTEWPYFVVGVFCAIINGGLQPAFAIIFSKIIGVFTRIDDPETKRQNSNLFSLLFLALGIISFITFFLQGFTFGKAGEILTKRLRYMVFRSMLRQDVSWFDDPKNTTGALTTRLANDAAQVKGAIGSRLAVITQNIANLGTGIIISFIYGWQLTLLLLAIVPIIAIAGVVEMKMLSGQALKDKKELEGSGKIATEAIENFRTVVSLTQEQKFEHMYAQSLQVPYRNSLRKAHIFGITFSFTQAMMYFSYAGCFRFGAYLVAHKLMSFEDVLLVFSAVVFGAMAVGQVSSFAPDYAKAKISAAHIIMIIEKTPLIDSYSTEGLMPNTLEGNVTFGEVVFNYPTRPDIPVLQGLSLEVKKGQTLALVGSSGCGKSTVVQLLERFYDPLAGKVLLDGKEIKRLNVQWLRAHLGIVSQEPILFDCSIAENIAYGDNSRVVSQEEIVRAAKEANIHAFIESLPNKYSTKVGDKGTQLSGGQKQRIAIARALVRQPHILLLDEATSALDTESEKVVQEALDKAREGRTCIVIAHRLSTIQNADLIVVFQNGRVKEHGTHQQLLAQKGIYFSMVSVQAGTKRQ

As for `CC(=O)O[C@@H]1C[C@@H](O)[C@@H](C)OC1[C@]1(C)C(=O)c2cc3cc(C)c(cc4nc(cc5[nH]c(cc1n2)cc5C)C(=O)[C@@]4(C)C1O[C@H](C)[C@H](O)C[C@H]1OC(C)=O)[nH]3` (stereo partly specified) [TOLYPORPHIN A], the result in the data set with NCI/ADR-RES [1] was inactive. Moreover, the result in the data set on NCI/ADR-RES [2] was Active. The Activity entry in data set [3] was “Dose-dependent effect”.

`Cc1cc2cc3nc(cc4cc(C)c(cc5nc(cc1[nH]2)C(=O)C5(C)O)[nH]4)C(=O)C3(C)O` (stereo unspecified) [TOLYPORPHIN J]: in the data set with NCI/ADR-RES [1], the outcome was inactive. Besides, the outcome with NCI/ADR-RES [2] was Active. In addition, the Activity entry in data set [3] is listed as “Dose-dependent effect”.

The values are drawn from ChEMBL document CHEMBL1150948, “Tolyporphins J and K, two further porphinoid metabolites from the cyanobacterium Tolypothrix nodosa” (J Nat Prod, 1998).
